Results published in US20180078560A1, “USE OF 4-(4-FLUORO-2-METHOXYPHENYL)-N-{3-[(S-METHYLSULFONIMIDOYL)METHYL]PHENYL}-1,3,5-TRIAZIN-2-AMINE FOR TREATING MULTIPLE MYELOMA” (Bayer Pharma Aktiengesellschaft, priority 2015, published 2018).
Entries after “also recorded” stand apart in the source; their conditions may differ.

Legend:
EJM = test: Proliferation assay, EJM cell line; assay type: cell-based; conditions: Homo sapiens, Multiple myeloma, after 72 hours of incubation
JJN3 = test: Proliferation assay, JJN3 cell line; assay type: cell-based; conditions: Homo sapiens, JJN-3, Multiple myeloma, after 72 hours of incubation
[1] = system: NCI-H929 multiple myeloma xenograft; test: In vivo efficacy in NCI-H929 multiple myeloma xenograft model; design: species or system NOD/SCID mice; conditions: 25 mg/kg/day p.o. once daily
Procedure: The aim of the present experiments was to assess the in vivo efficacy and tolerability of Compound A′ in monotherapy in the NCI-H929 multiple myeloma xenograft model subcutaneously implanted into NOD/SCID mice.
(§1) In vivo efficacy was determined in female NOD/SCID mice bearing subcutaneous multiple myeloma NCI-H929 xenografts. Compound A′ was assessed at one dose level in monotherapy. Anti-tumour activity and tolerability of the treated group was assessed using the vehicle control group as a reference.
Multiple myeloma tumour fragments, derived from the NCI-H929 cell line, were obtained from xenografts in serial passage in nude mice and placed in PBS containing 10% penicillin/streptomycin. Tumour fragments (one fragment per animal; 3-4 mm edge length) were then subcutaneously implanted in the flank of NOD/SCID recipient mice under isofluorane anaesthesia.
At randomisation, the volume of growing tumours was initially determined. […] The result of the randomisation was documented and maintained with the experimental data Animals not randomised were euthanised. […]
The tumour volumes were determined by two-dimensional measurement with a caliper on the day of randomisation (day 0) and then twice weekly (i.e. on the same days on which mice were weighed). Tumour volumes were calculated according to the formulas: […]
Relative volumes of individual tumours (RTVs) for Day x were calculated by dividing the absolute individual tumour volume on Day x (Tx) by the absolute individual tumour volume of the same tumour on Day 0 (T0) multiplied by 100%:
Anti-tumour activity was evaluated as maximum tumour volume inhibition versus the vehicle control group.
Tumour inhibition for a particular day (T/C in %) was calculated from the ratio of the median RTV values of test versus control groups multiplied by 100.
The minimum (or optimum) T/C% value recorded for a particular test group during an experiment represents the maximum anti-tumour activity for the respective treatment. T/C values were calculated if at least 50% of the randomized animals in the treated group were alive on the day in question. […]

NCI-H929 = test: Proliferation assay, NCI-H929 cell line; assay type: cell-based; conditions: Homo sapiens, Multiple myeloma, after 72 hours of incubation
OPM-2 = test: Proliferation assay, OPM-2 cell line; assay type: cell-based; conditions: Homo sapiens, Multiple myeloma, after 72 hours of incubation
[2] = Tolerability (survival and body weight) in xenograft-bearing mice; assay type: in vivo
Procedure: as §1
Mortality checks were conducted daily during routine monitoring.
Mice were weighed twice a week. Relative body weights of individual mice in % were calculated by dividing the individual body weight on day X (BWX) by the individual body weight on day 0 (BW0) multiplied by 100 according to the formula: […]
Group median relative body weights were calculated as well, considering only the weights of mice that were alive on the day in question.
The in vivo efficacy and tolerability of BHC's investigational compound Compound A′ was assessed in monotherapy in the NCI-H929 multiple myeloma xenograft model. NCI-H929 tumour fragments, obtained from serial passage in nude mice, were implanted subcutaneously into female NOD/SCID mice. Compound A′ was administered orally at one dose level (25 mg/kg/day) in monotherapy once daily and treatment was started once subcutaneous tumours were established. A vehicle-treated control group was included in each experiment. […] Anti-tumour activity (tumour growth inhibition) and tolerability of treatment group was assessed using the vehicle control group as a reference.

In the case of COc1cc(F)ccc1-c1ncnc(Nc2cccc(CS(C)(=N)=O)c2)n1 (single isomer, unassigned; (+)) [Compound A′, (+)-4-(4-Fluoro-2-methoxyphenyl)-N-{3-[(S-methylsulfonimidoyl)methyl]phenyl}-1,3,5-triazin-2-amine], the IC50 (EJM) is reported as 200 nM, the IC50 (JJN3) is reported as 330 nM and the “NCI-H929 tumour growth vs vehicle control group” value ([1]; Mann-Whitney-Wilcoxon U-test) is reported as “significantly reduced; also recorded: significantly attenuated”. The “minimum T/C value” ([1]; NCI-H929 xenograft s.c. in female NOD/SCID mice, ratio of median RTV vs vehicle) was 5.5%, the anti-tumour activity rating ([1]; NCI-H929 xenograft, rating from optimum T/C) was “High anti-tumour activity” and the IC50 (NCI-H929) was 237 nM. The IC50 (OPM-2) was 600 nM, the “group median BWL (body weight loss)” value ([2]; NCI-H929 xenograft-bearing NOD/SCID mice, 25 mg/kg/day p.o. once daily) was no more than 2.7% and the tolerability profile ([2]; multiple myeloma xenograft-bearing mice, 25 mg/kg/day p.o.) was “acceptable tolerability profile”.
